Experimental data taken from patent publication US6491948B1, “Composition comprising isoquercetin and ascorbic acid in a sustained release form” (Merck Patent GmbH, priority 1999, dated 2002).

How the values were obtained:
[1] = passage of the blood-brain barrier / entry into the brain; assay type: in vivo; details: isoquercetin given one hour before ascorbate
From the text: The second form of ascorbic acid, semidehydroascorbic acid (ascorbate free radical) participates in univalent redox systems that is in the antioxidant defense activity. See Bors, W. et al. (1995), Interaction of Flavonoids with Ascorbate and Determination of their Univalent Redox Potentials: a Pulse Radiolysis Study, Free Radical Biology and Medicine, vol. 19, No. 1, 45-52. This means semidehydroascorbic acid participates most likely in free radical scavenging activities. According to the article Gordon, M. H. (1996), Dietary Antioxidants in Disease Prevention, Natural Product Reports, pp. 265-273, “ascorbate appears to be the most important non-protein antioxidant in plasma” p. 270. […] See Agus, D. B. et al. (1997), Vitamin C crosses the blood-brain barrier in the oxidized form through the glucose transporters, J. Clin. Invest., 100 (11) 2842-2848. After entering the brain dehydroascorbic acid is reduced and retained as ascorbic acid.

[2] = man; cited from earlier work
[3] = pharmacokinetic studies: absorption and bioavailability; set-up: species or system man; details: in vivo
From the text: Absorbed isoquercetin interacts with ascorbate keeping it in the reduced state and, at the same time, is being protected by ascorbate by being kept in the oxidized state (Yamasaki, H. et al. (1997), Flavanoid-peroxidase reaction as a detoxification mechanism of plant cells against H2O2).

[4] = in vivo; cited from earlier work
[5] = in vivo; cited from earlier work; remark: listed apart in the source

Row | SMILES | entry into the brain and reduction of dehydroascorbate [1] | absorption compared with rutin and quercetin [2] | absorption rate and bioavailability [3] | crossing of the blood-brain barrier [4] | concentration in brain relative to blood serum [5]
1 | O=c1c(O[C@@H]2O[C@H](CO)[C@@H](O)[C@H](O)[C@H]2O)c(-c2ccc(O)c(O)c2)oc2cc(O)cc(O)c12 [isoquercetin, quercetin-3-O-glucoside] | enters the brain and reduces dehydroascorbate | absorbed better than rutin and quercetin | excellent absorption rate and bioavailability |  | 
2 | O=C1O[C@H]([C@@H](O)CO)C(=O)C1=O [dehydroascorbic acid] |  |  |  | readily enters the brain | 
3 | O=C1O[C@H]([C@@H](O)CO)C(O)=C1O [Ascorbic acid, ascorbic acid] |  |  |  | not able to cross blood-brain barrier | 10 times
